According to article PMC12382740, “In Vitro and In Vivo Characterization of Novel Cathelicidin-Based Peptides with Antimicrobial Activity Against Pseudomonas aeruginosa” (Antibiotics, 2025):
Converted amounts (≈) assume the structure as drawn. Like-named read-outs stand apart in the source and are kept apart here. Square brackets hold non-standard residues; d marks the D form. Ends that are not written are not given here. Peptide text beside a SMILES is read from it. * marks the point of attachment. Gu = N-terminal guanidylation, N=C(N)*

Legend:
[1] = system: P. aeruginosa strain panel; type: cell-based, Pseudomonas aeruginosa; details: strain panel
Protocol: (§1) The antimicrobial activity of the peptides was tested against a collection of P. aeruginosa, selected by their resistance or susceptibility to colistin and/or classified as MDR strains. The origin of the strains was either clinical, relevant to the current clinical situation, or commercial strains belonging to the American Type Culture Collection (ATCC, Manassas, VA, USA), which complemented the collection for comparison and control. For the initial activity screening of the 17 peptides, we tested them against P. aeruginosa ATCC strains 1211007 and 1211101. Both strains are multidrug-resistant; however, the key difference is that strain 1211007 is susceptible to colistin, whereas strain 1211101 is resistant to colistin.
(§2) Minimum Inhibitory Concentration (MIC) of the antimicrobial agents against bacterial strains was obtained through broth microdilution assays following a protocol based on the Clinical & Laboratory Standards Institute’s guidelines. Modifications regarding microplate material and broth were included when testing the peptides’ activity and are detailed below. Colistin MICs were obtained following recommendations of the joint CLSI-EUCAST Polymyxin Breakpoints Working Group using Cation Adjusted Mueller-Hinton Broth (90922, 500 g Sigma-Aldrich®, St. Louis, MO, USA), and strains Escherichia coli 13846 (mcr-1 positive) and P. aeruginosa ATCC 27853 were used as quality controls in all assays. Bacteria were cultured in Columbia Agar plates (Columbia Agar with 5% Sheep Blood 90 mm Stacker plates, Becton Dickinson, Franklin Lakes, NJ, USA) and incubated overnight at 37 °C. Polypropylene round-bottomed 96-well plates (-96-well Polypropylene Storage Microplates, 267334, Thermo Fischer Scientific, Waltham, MA, USA) were used to prevent peptide binding to plate walls. AST broth (BD Phoenix™ AST broth, 8 mL, 246003, Becton Dickinson, Franklin Lakes, NJ, USA) was used when testing the peptides’ activity. […] Three biological and technical replicates were performed per strain.

[2] = system: P. aeruginosa Strain 121007; type: cell-based, Pseudomonas aeruginosa; details: Strain 121007
Protocol: as §1, §2

[3] = In vivo toxicity study, topical; design: species or system BALB/C mice; details: for mice final weight (median ± SD): after 7 days of observation after the treatment; for dermal responses and body weight loss / indicative signs of acute toxicity: healthy female BALB/C mice; for dermal responses and body weight loss: during the application; for indicative signs of acute toxicity: topical, efficacy dosage, 7 days observation
Protocol: Immunocompetent female BALB/C mice weighing 20 g (7–9 weeks old) were used (Charles River laboratories, St-Germain-Nuelles, France). Animals were murine pathogen-free and were assessed for genetic authenticity. The study followed the Guide for the Care and Use of Laboratory Animals. The experiments followed the 2010/63/EU directive on the protection of animals used for scientific research. Experiments were approved by the Committee on the Ethics of Animal Experiments of the Virgen del Rocío University Hospital and the Andalusian Ministry of Agricultura, Pesca, Agua y Desarrollo Rural, Junta de Andalucía, Sevilla, Spain (11-09-15-322).
CAP-18 and D-CAP-18 peptides were evaluated in five healthy female BALB/C mice at the dosage and regimen schedule to be used in the efficacy studies. The following indicative signs of acute toxicity were assessed during seven days: reduced water (dehydration)/food intake, isolation, self-mutilation, tremors/spasms, dyspnea, physical activity (increased/reduced), chromo-dacryorrhea, dermal responses, including erythema/oedema/redness/discoloration/necrosis), muscle stiffness, piloerection, teeth grinding, and weight loss.

human erythrocytes = test: Hemolysis assay; type: cell-based; details: red cells of human, 4 h
Protocol: Commercially available human blood (IWB1K2E10ML, Innovative Research Inc., Novi, MI, USA) was used to produce a 50% haematocrit solution by mixing at 1:1 with PBS 1× (P5493, 1 L, Sigma, St. Louis, MO, USA). Three consecutive PBS 1× washes plus centrifugation at 2600 rpm for 10 min steps were performed. Finally, a 2% erythrocyte solution was prepared in PBS 1× and chilled on ice until used. Polypropylene plates were filled with 50 µL PBS 1× per well for the samples and 50 µL 2% Triton X-100 (TX-100, 9002-93-1, 100 mL, Sigma, St. Louis, MO, USA) for the hemolysis controls. A solution at 4× final concentration of the assay of each peptide was prepared in PBS and 50 µL were added to the first column of each plate, followed by serial dilutions in the microplate. Then, 50 µL of the 2% erythrocyte solution was added to each plate. […] controls consisted in a 1:1 mix of PBS 1× and erythrocytes at 2%. Plates were incubated at 37 °C for 4 h and then centrifuged at 1500 rpm for 5 min. Eighty µL were extracted from the supernatant of each well carefully and transferred to a polystyrene flat bottom plate for reading and read at 450 nm in an Epoch microplate spectrophotometer (Epoch™, BioTek, Winooski, VT, USA).
The therapeutic index is a widely accepted parameter to represent the specificity of antimicrobial peptides for prokaryotic versus eukaryotic cells. It is calculated by the ratio of HC50 (hemolytic activity) and MIC (antimicrobial activity); thus, larger values of therapeutic index indicate greater specificity for prokaryotic cells.

HeLa cells [4] = type: cell-based, human; details: 24 h
Protocol: (§3) Cell viability assays were performed against HeLa and A549 cells. Cells were seeded in Corning 96-well microplates at 2 × 10^3 cells/well and 5 × 10^3 cells/well and incubated for 24 h at 37 °C. Then, cells were treated with peptides dissolved in Dulbecco’s Modified Eagle’s Medium for 24 h; peptide concentration range 0.1–100 µM. The peptide solution was then removed, and fresh medium was added to the cells. Finally, 50 µL of activated-XTT solution was added and incubated for 4 h at 37 °C. A PowerWave X reader (BioTek, Winooski, VT, USA) was used to measure absorbance at 450 nm. Cell viability was calculated through the ratio of the absorbance of peptide-treated cells over the absorbance of untreated cells. Triplicates were run for each experiment.

A549 cells = type: cell-based, human; details: 24 h
Protocol: as §3

[5] = system: Colistin Susceptible P. aeruginosa; type: cell-based, Pseudomonas aeruginosa; details: Colistin Susceptible
Protocol: as §1, §2

[6] = system: Colistin-Resistant P. aeruginosa; type: cell-based, Pseudomonas aeruginosa; details: Colistin-Resistant
Protocol: as §1, §2

[7] = system: P. aeruginosa Strain ATCC 121110; type: cell-based, Pseudomonas aeruginosa; details: ATCC 121110
Protocol: as §1, §2

HeLa cells [8] = system: HeLa cells; design: method as in PMID 26114809; details: read-out: IC50 against HeLa cells; cited from earlier work
erythrocytes = system: erythrocytes; design: method as in PMID 26114809; details: at 64 mg/L ref 58; cited from earlier work

Row | Compound | MIC50 [1] [µg/mL] | MIC90 [1] [µg/mL] | mice final weight (median ± SD) [3] [grams] | dermal responses and body weight loss [3] | indicative signs of acute toxicity [3] | IC50 (human erythrocytes) [µM] | IC50 (HeLa cells [4]) [µM] | IC50 (A549 cells) [µM] | IC50 (HeLa cells [8]) [µM] | also measured
1 | CC[C@@H](C)[C@@H](NC(=O)[C@@H](CCCCN)NC(=O)[C@@H](CCCCN)NC(=O)[C@@H](CC(C)C)NC(=O)[C@@H](CCCCN)NC(=O)[C@@H](CCC(=O)O)NC(=O)[C@@H](CCCCN)NC(=O)[C@H](NC(=O)[C@@H](CCCCN)NC(=O)[C@@H](CC(N)=O)NC(=O)[C@@H](CCCNC(=N)N)NC(=O)[C@@H](Cc1ccccc1)NC(=O)[C@@H](CCCCN)NC(=O)[C@@H](CCCNC(=N)N)NC(=O)[C@@H](CC(C)C)NC(=O)[C@@H](CCCNC(=N)N)NC(=O)[C@@H](CCCCN)NC(=O)[C@@H](CCCNC(=N)N)NC(=O)[C@@H](CC(C)C)NC(=O)CN)[C@H](C)CC)C(=O)NCC(=O)N[C@H](CCC(N)=O)C(=O)N[C@H](CCCCN)C(=O)N[C@@H](C(=O)N[C@H](CCC(N)=O)C(=O)NCC(=O)N[C@H](CC(C)C)C(=O)N[C@H](CC(C)C)C(=O)N1CCC[C@@H]1C(=O)N[C@H](CCCCN)C(=O)N[C@H](CC(C)C)C(=O)N[C@H](C)C(=O)N1CCC[C@@H]1C(=O)N[C@H](CCCNC(=N)N)C(=O)N[C@@H](C(=O)N[C@H](CC(=O)O)C(=O)N[C@H](Cc1ccc(O)cc1)C(=O)O)[C@H](C)O)[C@H](C)CC [D-CAP-18, Glrkrlrkfrnkikeklkkigqkiqgllpklaprtdy] (H-G[dL][dR][dK][dR][dL][dR][dK][dF][dR][dN][dK][dI][dK][dE][dK][dL][dK][dK][dI]G[dQ][dK][dI][dQ]G[dL][dL][dP][dK][dL][dA][dP][dR][dT][dD][dY]-OH) | 1 (≈ 0.226 µM) | 2 (≈ 0.451 µM) | 18.9 ± 0.30 | no dermal responses, including erythema/oedema, nor body weight loss were observed | None of the 11 indicative signs of acute toxicity were observed | 62 | 2.11 | 2.09 | – | MIC [2]: 2 µg/mL (≈ 0.451 µM)
2 | GLRKRLRKFRNKIKEKLKKIGQKIQGLLPKLAPRTDY [CAP-18] | 0.5 | 4 | 19.1 ± 0.55 | no dermal responses, including erythema/oedema, nor body weight loss were observed | None of the 11 indicative signs of acute toxicity were observed | 35.7 | 9.12 | 0.87 | – | MIC [5]: 8 µg/mL; MIC [6]: 4 µg/mL; MIC [7]: < 0.125 µg/mL
3 | Gu-INLKALAALAKKIL-NH2 (SMILES CC[C@H](C)[C@H](NC(=N)N)C(=O)N[C@@H](CC(N)=O)C(=O)N[C@@H](CC(C)C)C(=O)N[C@@H](CCCCN)C(=O)N[C@@H](C)C(=O)N[C@@H](CC(C)C)C(=O)N[C@@H](C)C(=O)N[C@@H](C)C(=O)N[C@@H](CC(C)C)C(=O)N[C@@H](C)C(=O)N[C@@H](CCCCN)C(=O)N[C@@H](CCCCN)C(=O)N[C@H](C(=O)N[C@@H](CC(C)C)C(N)=O)[C@@H](C)CC) [guanidylated mastoparan analog] | – | – | – | – | – | – | – | – | 13 | –
4 | H-INLKALAALAKKIL-CH2CH2NH2 | – | – | – | – | – | – | – | – | 5 | –
5 | H-inlkalaalakkil-NH2 | – | – | – | – | – | – | – | – | 10 | –
6 | mastoparan | – | – | – | – | – | – | – | – | 32 | hemolysis (erythrocytes): 6.6%
